From patent US8188301B2, “Disubstituted phenylpyrrolidines as modulators of cortical catecholaminergic neurotransmission” (NSAB, Filial af NeuroSearch Sweden AB, Sverige, priority 2007, dated 2012)
Where a name gives a salt, the structure may show the parent alone.

melting point [°C]	Structure (SMILES)
164 to 166	CN1CCC(O)(c2ccc(F)c(F)c2)C1 (centres unmarked) (as salt: fumaric acid salt)
142 to 145.5	CCN1CCC(O)(c2cccc(Cl)c2F)C1 (centres unmarked) (as salt: fumaric acid salt)
157.9	CCCN1CCC(O)(c2ccc(F)c(Cl)c2)C1 (centres unmarked) (as salt: fumaric acid salt)
129 to 131	CN1CCC(O)(c2cc(F)cc(Cl)c2)C1 (centres unmarked) (as salt: fumaric acid salt)
143 to 147	CC(C)N1CCC(O)(c2ccc(F)c(F)c2)C1 (centres unmarked) (as salt: fumaric acid salt)
97 to 100	CCCN1CCC(O)(c2cccc(F)c2F)C1 (centres unmarked) (as salt: fumaric acid salt) [Example 33]
95 to 98	CCCN1CCC(O)(c2cccc(F)c2F)C1 (centres unmarked) (as salt: fumaric acid salt) [Example 34]
201 to 202	FC1(c2cc(Cl)cc(Cl)c2)CCNC1 (centres unmarked) (as salt: hydrochloric acid salt) [Example 14, 3-(3,5-DICHLOROPHENYL)-3-FLUOROPYRROLIDINE]
136	Fc1cccc(C2(F)CCNC2)c1F (centres unmarked) (as salt: hydrochloric acid salt) [Example 23, 3-(2,3-DIFLUOROPHENYL)-3-FLUOROPYRROLIDINE]
117 to 119	CN1CCC(O)(c2ccc(F)cc2F)C1 (centres unmarked) (as salt: oxalic acid salt)
206 to 207	CCN1CCC(O)(c2cccc(Cl)c2Cl)C1 (centres unmarked) (as salt: oxalic acid salt)
157.2	CCCN1CCC(O)(c2cc(F)cc(Cl)c2)C1 (centres unmarked) (as salt: oxalic acid salt)
146 to 147	CCCCN1CCC(O)(c2cc(F)cc(F)c2)C1 (centres unmarked) (as salt: oxalic acid salt)
123 to 125	CN1CCC(O)(c2cccc(Cl)c2F)C1 (centres unmarked) (as salt: oxalic acid salt)
128 to 129	CN1CCC(F)(c2cc(F)cc(F)c2)C1 (centres unmarked) (as salt: oxalic acid salt) [Example 11, 3-(3,5-DIFLUOROPHENYL)-3-FLUORO-1-METHYLPYRROLIDINE]
176 to 177	Fc1cc(F)cc(C2(F)CCNC2)c1 (centres unmarked) (as salt: oxalic acid salt) [Example 13, 3-(3,5-DIFLUOROPHENYL)-3-FLUOROPYRROLIDINE]
159 to 162	CN1CCC(O)(c2cc(F)cc(F)c2)C1 (centres unmarked) (as salt: oxalic acid salt) [Example 18]
71 to 74	CCN1CCC(O)(c2cccc(Cl)c2F)C1 (centres unmarked) (as salt: oxalic acid salt) [Example 35]
72 to 74	CCN1CCC(O)(c2cccc(Cl)c2F)C1 (centres unmarked) (as salt: oxalic acid salt) [Example 37]
155.3	CCCCN1CCC(O)(c2cccc(F)c2F)C1 (centres unmarked) (as salt: oxalic acid salt) [Example 38]
176	CC(C)CN1CCC(O)(c2cccc(F)c2F)C1 (centres unmarked) (as salt: oxalic acid salt) [Example 39]

melting point [°C]	Structure (SMILES)
134.3	CN1CCC(O)(c2cccc(F)c2F)C1 (centres unmarked) (as salt: oxalic acid salt) [Example 40]
120	C=CCN1CCC(O)(c2cccc(F)c2F)C1 (centres unmarked) (as salt: oxalic acid salt) [Example 41]
102 to 103	C=CCN1CCC(O)(c2cc(F)cc(F)c2)C1 (centres unmarked) (as salt: oxalic acid salt) [Example 44]
162 to 163	CC(C)CN1CCC(O)(c2cc(F)cc(F)c2)C1 (centres unmarked) (as salt: oxalic acid salt) [Example 46]
134 to 135	CN1CCC(O)(c2cc(F)cc(F)c2)C1 (centres unmarked) (as salt: oxalic acid salt) [Example 47]
172.8	OC1(c2cccc(F)c2F)CCN(CC2CC2)C1 (centres unmarked) (as salt: oxalic acid salt) [Example 49]
150	CN1CCC(O)(c2cc(F)cc(F)c2)C1 (centres unmarked) (as salt: oxalic acid salt) [Example 52]
164 to 165	CC(C)CN1CCC(O)(c2cc(F)cc(F)c2)C1 (centres unmarked) (as salt: oxalic acid salt) [Example 53]
104 to 105	C=CCN1CCC(O)(c2cc(F)cc(F)c2)C1 (centres unmarked) (as salt: oxalic acid salt) [Example 55]
157 to 158	CCCCN1CCC(O)(c2cccc(F)c2F)C1 (centres unmarked) (as salt: oxalic acid salt) [Example 58]
131 to 132	CN1CCC(O)(c2cccc(F)c2F)C1 (centres unmarked) (as salt: oxalic acid salt) [Example 59]
168 to 169	CC(C)CN1CCC(O)(c2cccc(F)c2F)C1 (centres unmarked) (as salt: oxalic acid salt) [Example 61]
119 to 120	C=CCN1CCC(O)(c2cccc(F)c2F)C1 (centres unmarked) (as salt: oxalic acid salt) [Example 62]
170 to 171	OC1(c2cccc(F)c2F)CCN(CC2CC2)C1 (centres unmarked) (as salt: oxalic acid salt) [Example 64]
117 to 118	CN1CCC(O)(c2cc(F)cc(Cl)c2)C1 (centres unmarked) (as salt: oxalic acid salt) [Example 65]
114 to 115	CN1CCC(O)(c2cc(F)cc(Cl)c2)C1 (centres unmarked) (as salt: oxalic acid salt) [Example 66]
131 to 132	COCCN1CCC(O)(c2cc(F)cc(F)c2)C1 (single isomer, unassigned; (+)) (as salt: oxalic acid salt) [Example 54, (+)-3-(3,5-DIFLUOROPHENYL)-1-(2-METHOXYETHYL)PYRROLIDIN-3-OL]
149 to 150	COCCN1CCC(O)(c2cccc(F)c2F)C1 (single isomer, unassigned; (+)) (as salt: oxalic acid salt) [Example 60, (+)-3-(2,3-DIFLUOROPHENYL)-1-(2-METHOXYETHYL)PYRROLIDIN-3-OL]
144 to 145	OC1(c2cccc(F)c2F)CCN(CCC(F)(F)F)C1 (single isomer, unassigned; (+)) (as salt: oxalic acid salt) [Example 63, (+)-3-(2,3-DIFLUOROPHENYL)-1-(3,3,3-TRIFLUOROPROPYL)PYRROLIDIN-3-OL]
146.7	COCCN1CCC(O)(c2cccc(F)c2F)C1 (single isomer, unassigned; (-)) (as salt: oxalic acid salt) [Example 42, (−)-3-(2,3-DIFLUOROPHENYL)-1-(2-METHOXYETHYL)PYRROLIDIN-3-OL]
130 to 131	COCCN1CCC(O)(c2cc(F)cc(F)c2)C1 (single isomer, unassigned; (-)) (as salt: oxalic acid salt) [Example 45, (−)-3-(3,5-DIFLUOROPHENYL)-1-(2-METHOXYETHYL)PYRROLIDIN-3-OL]

Structure (SMILES)	melting point [°C]
CCN1CCC(O)(c2ccc(F)c(F)c2)C1 (centres unmarked) (as salt: fumaric acid salt)	136 to 137
CCN1CCC(O)(c2ccc(F)c(Cl)c2)C1 (centres unmarked) (as salt: fumaric acid salt) [Example 3, 3-(3-CHLORO-4-FLUOROPHENYL)-1-ETHYLPYRROLIDIN-3-OL]	157 to 158
CCN1CCC(O)(c2cccc(F)c2F)C1 (centres unmarked) (as salt: fumaric acid salt) [Example 4, 3-(2,3-DIFLUOROPHENYL)-1-ETHYLPYRROLIDIN-3-OL]	119 to 120
CCCN1CCC(O)(c2cc(F)cc(F)c2)C1 (centres unmarked) (as salt: fumaric acid salt) [Example 9, 3-(3,5-DIFLUOROPHENYL)-1-PROPYLPYRROLIDIN-3-OL]	136 to 137
CCN1CCC(O)(c2ccc(Cl)c(Cl)c2)C1 (centres unmarked) (as salt: fumaric acid salt) [Example 10, 3-(3,4-DICHLOROPHENYL)-1-ETHYLPYRROLIDIN-3-OL]	184 to 185
CCN1CCC(O)(c2ccc(F)c(F)c2)C1 (centres unmarked) (as salt: fumaric acid salt) [Example 12, 3-(3,4-DIFLUOROPHENYL)-1-ETHYLPYRROLIDIN-3-OL]	157 to 158
CCCN1CCC(O)(c2ccc(F)c(F)c2)C1 (centres unmarked) (as salt: fumaric acid salt) [Example 27]	127 to 129
CCCN1CCC(O)(c2ccc(F)c(F)c2)C1 (centres unmarked) (as salt: fumaric acid salt) [Example 28]	128 to 129
CCN1CCC(O)(c2cc(F)cc(Cl)c2)C1 (centres unmarked) (as salt: oxalic acid salt) [Example 5, 3-(3-CHLORO-5-FLUOROPHENYL)-1-ETHYLPYRROLIDIN-3-OL]	169 to 170
CCCN1CCC(O)(c2ccc(F)c(F)c2)C1 (centres unmarked) (as salt: oxalic acid salt) [Example 7, 3-(3,4-DIFLUOROPHENYL)-1-PROPYLPYRROLIDIN-3-OL]	131 to 132
CCCN1CCC(O)(c2cc(F)cc(F)c2)C1 (centres unmarked) (as salt: oxalic acid salt) [Example 29]	117 to 118
CCCN1CCC(O)(c2cc(F)cc(F)c2)C1 (centres unmarked) (as salt: oxalic acid salt) [Example 30]	118 to 119
CCN1CCC(O)(c2cc(F)cc(Cl)c2)C1 (centres unmarked) (as salt: oxalic acid salt) [Example 31]	117 to 118
CCN1CCC(O)(c2cc(F)cc(Cl)c2)C1 (centres unmarked) (as salt: oxalic acid salt) [Example 67]	113 to 114
CCN1CCC(O)(c2cc(F)cc(F)c2)C1 (single isomer, unassigned; (+)) (as salt: oxalic acid salt) [Example 2, (+)-3-(3,5-DIFLUOROPHENYL)-1-ETHYLPYRROLIDIN-3-OL]	137 to 139
CCN1CCC(O)(c2cc(F)cc(F)c2)C1 (single isomer, unassigned; (-)) (as salt: oxalic acid salt) [Example 1, (−)-3-(3,5-DIFLUOROPHENYL)-1-ETHYLPYRROLIDIN-3-OL]	111 to 112
CCN1CCC(O)(c2cccc(F)c2F)C1 (single isomer, unassigned; (-)) (as salt: oxalic acid salt) [Example 32, (−)-3-(2,3-DIFLUOROPHENYL)-1-ETHYLPYRROLIDIN-3-OL]	118 to 120
